# What was measured:
# [1] = target: human factor XIa (Homo sapiens (Human), UniProt P03951); assay: Measurement of FXIa inhibition; format: biochemical; settings: factor XIa from Kordia, substrate Boc-Glu(OBzl)-Ala-Arg-AMC, fluorescence
# Description: a.1) Measurement of FXIa Inhibition
# (§1) The factor XIa inhibition of the substances according to the invention is determined using a biochemical test system which utilizes the reaction of a peptidic factor XIa substrate to determine the enzymatic activity of human factor XIa. Here, factor XIa cleaves from the peptic factor XIa substrate the C-terminal aminomethylcoumarin (AMC), the fluorescence of which is measured. The determinations are carried out in microtitre plates.
# 1 μl of the diluted substance solutions is placed into each of the wells of white microtitre plates from Greiner (384 wells). […] After 15 min of incubation, the enzyme reaction is started by addition of 20 μl of the factor XIa substrate Boc-Glu(OBzl)-Ala-Arg-AMC dissolved in assay buffer (10 μM in assay buffer) from Bachem, the mixture is incubated at room temperature (22° C.) for 30 min and fluorescence is then measured (excitation: 360 nm, emission: 460 nm). The measured emissions of the test batches with test substance are compared to those of control batches without test substance (only dimethyl sulphoxide instead of test substance in dimethyl sulphoxide), and IC50 values are calculated from the concentration/activity relationships.
# [2] = target: human plasma kallikrein (Homo sapiens (Human), UniProt P03952); assay: Determination of the plasma kallikrein activity; format: biochemical; settings: plasma kallikrein from Kordia, substrate H-Pro-Phe-Arg-AMC, fluorescence
# human plasma kallikrein, sequence (P03952 391-638): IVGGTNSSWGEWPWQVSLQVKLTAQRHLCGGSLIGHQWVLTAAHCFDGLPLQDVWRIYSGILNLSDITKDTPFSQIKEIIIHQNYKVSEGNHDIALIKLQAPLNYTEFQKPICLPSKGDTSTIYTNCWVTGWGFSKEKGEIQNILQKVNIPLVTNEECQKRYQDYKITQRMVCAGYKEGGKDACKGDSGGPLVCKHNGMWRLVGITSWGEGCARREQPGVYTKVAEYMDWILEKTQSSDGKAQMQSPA
# human plasma kallikrein, sequence (P03952 20-390 partner): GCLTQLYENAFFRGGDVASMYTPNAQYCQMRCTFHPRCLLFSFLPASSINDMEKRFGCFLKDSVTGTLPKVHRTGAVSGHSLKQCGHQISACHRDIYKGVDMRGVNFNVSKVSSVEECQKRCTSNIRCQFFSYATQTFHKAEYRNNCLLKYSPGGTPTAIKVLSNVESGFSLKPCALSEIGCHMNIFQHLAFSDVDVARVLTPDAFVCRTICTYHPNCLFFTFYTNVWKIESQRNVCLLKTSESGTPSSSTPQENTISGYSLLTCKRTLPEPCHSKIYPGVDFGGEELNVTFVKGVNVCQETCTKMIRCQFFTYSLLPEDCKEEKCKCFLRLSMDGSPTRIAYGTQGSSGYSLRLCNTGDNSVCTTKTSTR
# Description: a.5) Determination of the Plasma Kallikrein Activity
# as §1, with “To determine the plasma kallikrein” for “The factor XIa”, “invention,” for “invention is determined using”, “system is used” for “system”, “plasma kallikrein” for “factor XIa”, “plasma kallikrein.” for “factor XIa.”
# 1 μl of the diluted substance solutions is placed into each of the wells of white microtitre plates from Greiner (384 wells). 20 μl of assay buffer (50 mM Tris/HCl pH 7.4; 100 mM sodium chloride solution; 5 mM of calcium chloride solution; 0.1% of bovine serum albumin) and 20 μl of plasma kallikrein from Kordia (0.6 nM in assay buffer) are then added successively. After 15 min of incubation, the enzyme reaction is started by addition of 20 μl of the substrate H-Pro-Phe-Arg-AMC dissolved in assay buffer (10 μM in assay buffer) from Bachem, the mixture is incubated at room temperature (22° C.) for 30 min and fluorescence is then measured (excitation: 360 nm, emission: 460 nm). The measured emissions of the test batches with test substance are compared to those of control batches without test substance (only dimethyl sulphoxide instead of test substance in dimethyl sulphoxide), and IC50 values are calculated from the concentration/activity relationships.
# human factor XIa, sequence (P03951 388-625): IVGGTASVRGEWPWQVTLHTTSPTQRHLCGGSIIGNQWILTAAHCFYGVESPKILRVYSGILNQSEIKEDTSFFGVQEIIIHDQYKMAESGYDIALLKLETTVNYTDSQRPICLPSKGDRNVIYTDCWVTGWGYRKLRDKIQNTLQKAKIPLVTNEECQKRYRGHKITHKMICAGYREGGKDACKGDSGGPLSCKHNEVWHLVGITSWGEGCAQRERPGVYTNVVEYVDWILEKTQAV
# human factor XIa, sequence (P03951 19-387 partner): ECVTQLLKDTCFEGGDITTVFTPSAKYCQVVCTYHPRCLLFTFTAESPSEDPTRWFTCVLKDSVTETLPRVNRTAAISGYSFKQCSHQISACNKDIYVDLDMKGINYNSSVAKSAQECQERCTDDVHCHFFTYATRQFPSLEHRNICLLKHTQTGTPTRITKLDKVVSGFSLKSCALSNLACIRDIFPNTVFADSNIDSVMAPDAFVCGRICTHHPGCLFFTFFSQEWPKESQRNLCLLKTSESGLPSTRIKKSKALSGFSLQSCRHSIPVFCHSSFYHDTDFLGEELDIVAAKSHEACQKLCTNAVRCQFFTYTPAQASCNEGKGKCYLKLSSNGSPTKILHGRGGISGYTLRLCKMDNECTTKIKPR
SMILES,IC50 [1],IC50 [2]
"COCCC(C(=O)Nc1ccc2[nH]c(=O)[nH]c2c1)n1cc2c(cc1=O)-c1cc(Cl)ccc1CC1(CC1)NC2=O (centres unmarked) [Example 14, 2-(11′-Chloro-2′,5′-dioxo-2′,5′,6′,8′-tetrahydro-3′H-spiro[cyclopropane-1,7′-pyrido[3,4-e][3]benzazocine]-3′-yl)-4-methoxy-N-(2-oxo-2,3-dihydro-1H-benzimidazol-5-yl)butanamide]",18 nM,230 nM
"CCC(C(=O)Nc1ccc(C(=O)O)cc1)n1cc2c(cc1=O)-c1cc(Cl)ccc1CNC2=O (centres unmarked) [Example 1, 4-{[2-(10-Chloro-2,5-dioxo-2,5,6,7-tetrahydro-3H-pyrido[3,4-d][2]benzazepin-3-yl)butanoyl]amino}benzoic acid]",420 nM,> 10000 nM
"CO[C@H]1CC[C@H](CC(C(=O)Nc2ccc3[nH]c(=O)[nH]c3c2)n2cc3c(cc2=O)-c2cc(Cl)ccc2CC2(CC2)NC3=O)CC1 (stereo partly drawn) [Example 27, 2-(11′-Chloro-2′,5′-dioxo-2′,5′,6′,8′-tetrahydro-3′H-spiro[cyclopropane-1,7′-pyrido[3,4-e][3]benzazocine]-3′-yl)-3-(trans-4-methoxycyclohexyl)-N-(2-oxo-2,3-dihydro-1H-benzimidazol-5-yl)propanamide]",18 nM,250 nM
"CC(C)CC(C(=O)Nc1ccc(C(=O)O)cc1)n1cc2c(cc1=O)-c1cc(Cl)ccc1CCNC2=O (centres unmarked) [Example 8, 4-{[2-(11-Chloro-2,5-dioxo-5,6,7,8-tetrahydropyrido[3,4-e][3]benzazocin-3(2H)-yl)-4-methylpentanoyl]amino}benzoic acid]",36 nM,680 nM
"O=C(Cn1cc2c(cc1=O)-c1cc(Cl)ccc1CCNC2=O)Nc1ccc(-c2noc(=O)[nH]2)cc1 [Example 5, 2-(11-Chloro-2,5-dioxo-5,6,7,8-tetrahydropyrido[3,4-e][3]benzazocin-3(2H)-yl)-N-[4-(5-oxo-4,5-dihydro-1,2,4-oxadiazol-3-yl)phenyl]acetamide]",350 nM,8300 nM
"COCCC(C(=O)Nc1ccc2c(=O)n(C)[nH]c2c1)n1cc2c(cc1=O)-c1cc(Cl)ccc1CC1(CC1)NC2=O (centres unmarked) [Example 19, 2-(11′-Chloro-2′,5′-dioxo-2′,5′,6′,8′-tetrahydro-3′H-spiro[cyclopropane-1,7′-pyrido[3,4-e][3]benzazocine]-3′-yl)-4-methoxy-N-(2-methyl-3-oxo-2,3-dihydro-1H-indazol-6-yl)butanamide]",8.4 nM,230 nM
"COCCC(C(=O)Nc1ccc(C(N)=O)nc1)n1cc2c(cc1=O)-c1cc(Cl)ccc1CC1(CC1)NC2=O (centres unmarked) [Example 21, 5-{[2-(11′-Chloro-2′,5′-dioxo-2′,5′,6′,8′-tetrahydro-3′H-spiro[cyclopropane-1,7′-pyrido[3,4-e][3]benzazocine]-3′-yl)-4-methoxybutanoyl]amino}pyridine-2-carboxamide]",34 nM,910 nM

# Now those with a lower IC50 [1], led by results:
IC50 [1],IC50 [2],SMILES
7.7 nM,2100 nM,"CCC(C(=O)Nc1ccc(C(=O)O)cc1)n1cc2c(cc1=O)-c1cc(Cl)ccc1CC1(CC1)NC2=O (centres unmarked) [Example 10, 4-{[2-(11′-Chloro-2′,5′-dioxo-2′,5′,6′,8′-tetrahydro-3′H-spiro[cyclopropane-1,7′-pyrido[3,4-e][3]benzazocine]-3′-yl)butanoyl]amino}benzoic acid]"
2.5 nM,370 nM,"CO[C@H]1CC[C@H](CC(C(=O)Nc2ccc(C(=O)O)cc2)n2cc3c(cc2=O)-c2cc(Cl)ccc2CC2(CC2)NC3=O)CC1 (stereo partly drawn) [Example 25, 4-{[2-(11′-Chloro-2′,5′-dioxo-2′,5′,6′,8′-tetrahydro-3′H-spiro[cyclopropane-1,7′-pyrido[3,4-e][3]benzazocine]-3′-yl)-3-(trans-4-methoxycyclohexyl)propanoyl]amino}benzoic acid]"
1.2 nM,97 nM,"COCCC(C(=O)Nc1ccc(C(=O)O)cc1)n1cc2c(cc1=O)-c1cc(Cl)ccc1CC(CF)NC2=O (centres unmarked) [Example 33, 4-({2-[11-Chloro-7-(fluoromethyl)-2,5-dioxo-5,6,7,8-tetrahydropyrido[3,4-e][3]benzazocin-3(2H)-yl]-4-methoxybutanoyl}amino)benzoic acid]"

# — patent US10138236B2, “Factor xia-inhibiting pyridobenzazepine and pyridobenzazocine derivatives” (BAYER PHARMA AKTIENGESELLSCHAFT, priority 2014, dated 2018)
